Measured values as given in patent US20120035265A1, “COMPOSITIONS, METHODS, AND DEVICES FOR THE TREATMENT OF DYSMENORRHEA” (MediciNova, Inc., priority 2010, published 2012).
Where a name gives a salt, the structure may show the parent alone.

Columns and labels:
[1] = system: uterine muscle isolated from pregnant rats; assay: Spontaneous contractions of uterine muscle isolated from pregnant rats (organ bath); type: cell-based; settings: pregnant rat uterine muscle, mean ± standard error, 10 samples
Protocol: The experimental operation of this study was as reported by T. Kawarabayashi et al.^1 After each SD-strain rat on Day 21 of pregnancy were exsanguinated to death, the uterus was isolated to prepare up to 8 myometrial strips (about 4 mm×10 mm) in the direction of the longitudinal muscle, with the adhesion to the placenta being avoided.
Each myometrial strip was suspended in an organ bath containing 10 mL of a Locke-Ringer solution at 37° C. (aerated with 95% O2+5% CO2 gas) with a load of about 1.0 g. After the amplitude and frequency of the muscular spontaneous contractions became stable, distilled water was added. Five minutes later, the test, control, or positive control substance was added cumulatively with intervals of 5 minutes. The myometrial contractile force was delivered to a strain pressure amplifier through a force displacement transducer and recorded on a Rectigraph.
Considering the sum of the uterine contraction during 5 minutes after the addition of distilled water as 100%, the response rate to each concentration of the test, control, or positive control substance was calculated from the sum of the uterine contraction after each was added. Variable points (peaks) with amplitude (tension) of 0.2 g or lower were excluded from analysis. Samples showing any of the following events were not used for the study or excluded from analysis.
Microsoft® Excel 2000 (Microsoft Corp.) was used to sum up and analyze data and prepare tables and figures. Using a concentration-response curve obtained for each sample (X axis: log value of the concentration of the drug added, Y axis: response rate), a negative log value (pD2) of the concentration that inhibited the uterine contraction by 50% (EC50) was calculated from a straight line that connects the 2 concentrations above and below 50%, and converted to EC50.

[2] = system: uterine muscle isolated from pregnant rats; assay: PG F2α-induced contraction of uterine muscle isolated from pregnant rats; type: cell-based, rat; settings: contraction induced with 5 μg/mL of PG F2α, mean ± standard error of 10 samples
Protocol: (§1) After SD-strain rats on Day 17 of pregnancy were exsanguinated to death, the uterus was isolated to prepare up to 8 myometrial strips (about 4 mm×10 mm) per animal in the direction of the longitudinal muscle while avoiding the adhesion to the placenta. Each strip was suspended in an organ bath containing 10 mL of a modified Locke-Ringer solution at […] (aerated with 95% O2+5% CO2 gas) with a load of about 1.0 g. After the suspended sample became stable for static tension, 5 μg/mL of PG F2α or 1 mU/mL of oxytocin was added to induce contraction. After the sample was allowed to stand for at least 30 minutes to confirm stable rhythmic contraction for frequency and amplitude, the test, control, or positive control substance solution was added cumulatively at intervals of 5 minutes. After the treatment was completed, 1×10^−5 mol/L of forskolin was added to obtain maximal relaxation. The contractile force of the uterine sample was delivered via a force displacement transducer to a strain pressure amplifier and recorded on a Rectigraph.
(§2) Considering the sum of the uterine contraction for 5 minutes before treatment as 100%, the response rate to each concentration of the test, control, or positive control substance solution was calculated from the sum of uterine contraction after treatment for both PG F2α and oxytocin induced contraction. Then, the response rates obtained were used to prepare a concentration-response curve for each sample. The maximum relaxation obtained by adding forskolin was considered as a baseline. Variable points (peaks) with amplitude (tension) of […] or lower were excluded from analysis. Samples showing any of the following events were not used for the study or excluded from analysis.
(§3) Microsoft® Excel 2000 (Microsoft Corp.) was used to sum up and calculate data and prepare tables and figures. Using a concentration-response curve prepared for each sample (X axis: log value of the concentration of the substance added, Y axis: response rate), a negative log value (pEC50) of the concentration that inhibited the uterine contraction by 50% (EC50) was calculated from a straight line connecting the 2 concentrations just above and below 50%, and then converted to EC50 (unit: mol/L).

[3] = system: uterine muscle isolated from pregnant rats; assay: Oxytocin-induced contraction of uterine muscle isolated from pregnant rats; type: cell-based, rat; settings: contraction induced with 1 mU/mL of oxytocin, mean ± standard error of 10 samples
Protocol: as §1, §2, §3

[4] = system: uterine activity of anesthetized pregnant rats; assay: Uterine motility of anesthetized pregnant rats (balloon method); type: in vivo, rat; settings: uterine motility, intravenous cumulative dosing every 15 minutes, urethane-anesthetized pregnant rats
Protocol: Rats were anesthetized with urethane, and experiments were conducted based on balloon method. Uterine activity and mean blood pressure of dam were led to a pressure amplifier via a pressure transducer. As for heart rate, pulse waves were led to tachometer. Recti-graphs were used for recording. The test substance, control substance, or positive control substance was administered intravenously and cumulatively every 15 minutes, while doses were increased gradually.

[5] = system: uterine muscles isolated from pregnant rabbits; assay: Spontaneous contractions of isolated uterine muscles of pregnant rabbits (organ bath); type: cell-based, rabbit; settings: spontaneous contractions, pregnant rabbit uterine muscles; for EC50: Oryctolagus cuniculus, read-out: pD2 values (converted)
Protocol: (§4) Uterine muscles of pregnant rabbits were isolated, and experiments were conducted based on organ-bath method. After specimens of uterine muscles were suspended and spontaneous contractions was stabilized, the test substance, control substance or positive control substance was administered every 10 min, while doses were increased gradually. Efficacy of drugs was evaluated by comparing the sum of uterine contraction for 10 min before and after administration of drugs, defining the former as 100%.

[6] = system: uterine muscles isolated from pregnant rabbits; assay: Oxytocin-induced contractions of isolated uterine muscles of pregnant rabbits (organ bath); type: cell-based, rabbit; settings: oxytocin (1 mU/mL)-induced contractions, pregnant rabbit uterine muscles; for EC50: Oryctolagus cuniculus, read-out: pD2 values (converted)
Protocol: as §4, with “oxytocin (1 mU/mL)-induced” for “spontaneous”

[7] = system: uterine muscle isolated from pregnant rats; assay: Interaction of MN-221 and β-adrenoceptor antagonists on spontaneous contraction of uterine muscle isolated from pregnant rats (Schild regression); type: cell-based, rat
Protocol: The experimental operation of this study was as reported by T. Kawarabayashi et al.^4. After each SD-strain rat on Day 21 of pregnancy was exsanguinated to death, the uterus was isolated to prepare 8 myometrial samples (about 4 mm×10 mm) in the direction of the longitudinal muscle, with the adhesion to the placenta being avoided. Each myometrial sample was suspended with a load of about 1.0 g in an organ bath containing 10 mL of the Locke-Ringer solution at 37° C. […] After the suspended samples became stable for the amplitude and frequency of spontaneous contraction, each antagonist or distilled water was added to the bath to pretreat them for about 15 minutes. […] The contractile force of each sample was outputted through a force displacement transducer to a strain pressure amplifier and recorded with a rectigraph.
Any variable point (peak) with amplitude (tension) of 0.2 g or lower was excluded from analysis. Samples meeting any of the following criteria were rejected or removed from analysis.
Microsoft® Excel 2000 (Microsoft Corp.) was used for summing up or calculating data and preparing figures and tables. […] This EC50 value was used to calculate the concentration ratio (CR) of EC50 when an antagonist was added (for each sample) to that when no antagonist was added (mean value of the whole control group) and the logarithmic value of CR-1 (log [CR-1]).
Then, the added concentration of the antagonist was plotted on the X axis (logarithmic value) and log(CR-1) on the Y axis (Schild plot) to calculate the value of the X-axis intercept (pA2) and slope of the line using linear approximation (Schild regression^5). The slope was statistically compared with a slope of 1 (paired t-test; a probability level of less than 5% was considered significant). […] The mean and standard error were calculated for each data point obtained and indicated to two decimal places (or in 3 significant digit).

[8] = Rattus norvegicus, read-out: EC50
[9] = Rattus norvegicus, read-out: pEC50 (converted)

Row | Compound | EC50 ([1]; read-out: EC50) | ED30 values [4] | EC50 [5] | EC50 [6] | pD2 values [5] | pD2 values [6] | other results
1 | CC(NCCc1ccc(O)cc1)C(O)c1ccc(O)cc1 (racemic) [Ritodrine hydrochloride, (±)-erythro-1-(p-hydroxyphenyl)-2-[2-(p-hydroxyphenyl)ethylamino]-1-propanol hydrochloride] | 39.8 ± 13.3 nM | 51.45 µg/kg/min | 135 nM | 77.6 nM | – | – | EC50 ([1]; read-out: pD2 (converted)): 25.7 nM; EC50 [2, 8]: 3430 ± 720 nM; EC50 [2, 9]: 2630 nM; EC50 [3, 8]: 133 ± 16.8 nM; EC50 [3, 9]: 120 nM
2 | Cn1cc(C(F)(F)F)nc1-c1ccc(OCC(O)CNCCOc2ccc(O)c(C(N)=O)c2)cc1 (stereo not shown) [CGP 20712A, reference compound] | – | – | – | – | – | – | antagonistic effect on the effect of MN-221 ([7]; at a concentration of up to 1×10^−8 mol/L): no evident antagonistic effect
3 | CC(C)(C)NC[C@H](O)c1ccc(O)cc1Cl.O=C(O)C(O)C(O)C(=O)O [HSR-81, meluadrine tartrate] | – | 0.56 µg/kg/min | – | – | 8.21 ± 0.26 | 8.12 ± 0.21 | –
4 | CCc1ccccc1OC[C@@H](O)CN[C@H]1CCCc2ccccc21 [SR 59230A, reference compound] | – | – | – | – | – | – | antagonistic effect on the effect of MN-221 ([7]; at a concentration of up to 3×10^−8 mol/L): no evident antagonistic effect
5 | CC(C)(C)NCC(O)c1cc(O)cc(O)c1 (stereo not shown) [Terbutaline sulfate, terbutaline sulfate] | – | 0.72 µg/kg/min | 89.1 nM | 40.7 nM | – | – | –
6 | isoproterenol bitartrate | 0.42 ± 0.1 nM | – | – | – | 8.69 ± 0.17 | 8.53 ± 0.21 | pD2 [1]: 9.52±0.13; pEC50 [2]: 8.32±0.05; EC50 ([2]; read-out: EC50): 5.1 ± 0.633 nM; pEC50 [3]: 9.27±0.03; EC50 ([3]; read-out: EC50): 0.556 ± 0.0412 nM
